Each molecule was assayed on HIV-1 (H9IIIB strain) (assay: Cell-Based HIV Infection Assay Using a Reporter (MT4-GFP cells)). Settings: Human immunodeficiency virus 1, inflection point (IP) of viral growth inhibition; MT4-GFP cells infected with HIV-1 H9IIIB; 50% normal human serum; mean of at least two independent experiments; read-out: Cell Based IP (50% NHS).
Outline: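 MT4-GFP cells (HIV LTR-driven GFP) bulk-infected with HIV-1 H9IIIB at low MOI for 24 h, washed, then exposed to compounds in RPMI plus 50% normal human serum, 0.4% DMSO. Infected cells counted at 24 and 48 h; R0 = 48 h/24 h ratio, inhibition normalised to DMSO and triple-drug control; IP from 4-parameter fit.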

Row | SMILES | EC50 [nM]
1 | C[C@@H]1CC([C@H](c2ccc(F)cc2)[C@H](N)C(=O)Nc2cccc(C(F)(F)F)c2CC[C@H]2CN[C@@H]3CCCS(=O)(=O)N2C3)C[C@H](C)O1 (stereo partly drawn) [Example 204, (βR)-β-[(2R,6S)-2,6-dimethyltetrahydro-2H-pyran-4-yl]-N-[2-{2-[(6R,9S)-2,2-dioxido-2-thia-1,7-diazabicyclo[4.3.1]dec-9-yl]ethyl}-3-(trifluoromethyl)phenyl]-4-fluoro-L-phenylalaninamide] | 230
2 | COC(=O)N[C@H](C(=O)Nc1cccc(F)c1CCC1CNC2CCCS(=O)(=O)N1C2)[C@@H](c1ccc(Cl)cc1)c1ccnc(C(F)(F)F)c1 (stereo partly drawn) [Example 18, Methyl {(1S,2S)-2-(4-chlorophenyl)-1-({2-[2-(2,2-dioxido-2-thia-1,7-diazabicyclo[4.3.1]dec-9-yl)ethyl]-3-fluorophenyl}carbamoyl)-2-[2-(trifluoromethyl)pyridin-4-yl]ethyl}carbamate] | 8.7
3 | COC(=O)N[C@H](C(=O)Nc1cc(F)ccc1CC[C@H]1CN[C@@H]2CCCS(=O)(=O)N1C2)[C@@H](c1ccc(F)cc1)C1C[C@@H](C)O[C@@H](C)C1 (stereo partly drawn) [Example 30, Methyl [(1S,2R)-2-[(2R,6S)-2,6-dimethyltetrahydro-2H-pyran-4-yl]-1-[(2-{2-[(6R,9S)-2,2-dioxido-2-thia-1,7-diazabicyclo[4.3.1]dec-9-yl]ethyl}-5-fluorophenyl)carbamoyl]-2-(4-fluorophenyl)ethyl]carbamate] | 10
4 | N[C@H](C(=O)N[C@H]1CCCC[C@@H]1CC[C@H]1CN[C@@H]2CCCS(=O)(=O)N1C2)[C@@H](c1ccc(Cl)cc1)C1CCOCC1 [Example 24, (βR)-4-Chloro-N-[(1S,2R)-2-{2-[(6R,9S)-2,2-dioxido-2-thia-1,7-diazabicyclo[4.3.1]dec-9-yl]ethyl}cyclohexyl]-β-(tetrahydro-2H-pyran-4-yl)-L-phenylalaninamide] | 13
5 | CC1(C)C[C@H]([C@H](c2ccc(Cl)cc2)[C@H](N)C(=O)Nc2cccc(F)c2CC[C@H]2CN[C@@H]3CCS(=O)(=O)N2C3)CCO1 [Example 275, (2S,3R)-2-amino-3-(4-chlorophenyl)-3-((R)-2,2-dimethyltetrahydro-2H-pyran-4-yl)-N-(2-(2-((5R,8S)-2,2-dioxido-2-thia-1,6-diazabicyclo[3.3.1]nonan-8-yl)ethyl)-3-fluorophenyl)propanamide] | 25
6 | COC(=O)N[C@H](C(=O)Nc1cccc(F)c1CC[C@H]1CNC2CCCS(=O)(=O)N1C2)[C@@H](c1ccc(Cl)cc1)[C@H]1CCOC(C)(C)C1 (stereo partly drawn) [Example 43, methyl {(1S,2R)-2-(4-chlorophenyl)-2-[(4S)-2,2-dimethyltetrahydro-2H-pyran-4-yl]-1-[(2-{2-[(9S)-2,2-dioxido-2-thia-1,7-diazabicyclo[4.3.1]dec-9-yl]ethyl}-3-fluorophenyl)carbamoyl]ethyl}carbamate] | 8.5
7 | CCC(CC)[C@H](c1ccc(Cl)cc1)[C@H](N)C(=O)Nc1cncc(F)c1CC[C@H]1CN[C@@H]2CCCS(=O)(=O)N1C2 [Example 242, (2S,3R)-2-amino-3-(4-chlorophenyl)-N-(4-(2-((6R,9S)-2,2-dioxido-2-thia-1,7-diazabicyclo[4.3.1]decan-9-yl)ethyl)-5-fluoropyridin-3-yl)-4-ethylhexanamide] | 17
8 | N[C@H](C(=O)Nc1cccc(F)c1CCC1CNC2CCCS(=O)(=O)N1C2)[C@H](c1cncc(C(F)(F)F)c1)c1ccc(Cl)c(F)c1 (stereo partly drawn) [Example 227, (βS)-4-Chloro-N-{2-[2-(2,2-dioxido-2-thia-1,7-diazabicyclo[4.3.1]dec-9-yl)ethyl]-3-fluorophenyl}-3-fluoro-β-[5-(trifluoromethyl)pyridin-3-yl]-L-phenylalaninamide] | 7.1
9 | COC(=O)N[C@H](C(=O)Nc1cccc(F)c1CC[C@H]1CN[C@@H]2CCCS(=O)(=O)N1C2)[C@@H](c1ccc(Cl)cc1)[C@H]1CC[C@H](OC)CC1 [Example 187, methyl {(1S,2R)-2-(4-chlorophenyl)-1-[(2-{2-[(6R,9S)-2,2-dioxido-2-thia-1,7-diazabicyclo[4.3.1]dec-9-yl]ethyl}-3-fluorophenyl)carbamoyl]-2-[(1r,4R)-4-methoxycyclohexyl]ethyl}carbamate] | 3.2
10 | CC(C)[C@H](c1ccc(Cl)cc1)[C@H](N)C(=O)Nc1cncc(F)c1CC[C@H]1CN[C@@H]2CCCS(=O)(=O)N1C2 [Example 238, (2S,3R)-2-amino-3-(4-chlorophenyl)-N-(4-(2-((6R,9S)-2,2-dioxido-2-thia-1,7-diazabicyclo[4.3.1]decan-9-yl)ethyl)-5-fluoropyridin-3-yl)-4-methylpentanamide] | 13
11 | COC(=O)N[C@H](C(=O)Nc1c(F)ccc(F)c1CC[C@H]1CN[C@@H]2CCCS(=O)(=O)N1C2)[C@@H](c1ccc(Cl)cc1)C1CCOCC1 [Example 32, Methyl [(1S,2R)-2-(4-chlorophenyl)-1-[(2-{2-[(6R,9S)-2,2-dioxido-2-thia-1,7-diazabicyclo[4.3.1]dec-9-yl]ethyl}-3,6-difluorophenyl)carbamoyl]-2-(tetrahydro-2H-pyran-4-yl)ethyl]carbamate] | 20
12 | CO[C@H]1C[C@@H]([C@H](c2ccc(F)cc2)[C@H](N)C(=O)Nc2cccc(F)c2CC[C@H]2CN[C@@H]3CCCS(=O)(=O)N2C3)C1 [Example 106, (βR)-N-(2-{2-[(6R,9S)-2,2-dioxido-2-thia-1,7-diazabicyclo[4.3.1]dec-9-yl]ethyl}-3-fluorophenyl)-4-fluoro-β-[(1s,3S)-3-methoxycyclobutyl]-L-phenylalaninamide] | 110
13 | CO[C@H]1CC[C@H]([C@H](c2ccc(F)cc2)[C@H](N)C(=O)N[C@H]2CCCC[C@@H]2CC[C@H]2CN[C@@H]3CCCS(=O)(=O)N2C3)CC1 [Example 189, (βR)-N-[(1S,2R)-2-{2-[(6R,9S)-2,2-dioxido-2-thia-1,7-diazabicyclo[4.3.1]dec-9-yl]ethyl}cyclohexyl]-4-fluoro-β-[(1r,4R)-4-methoxycyclohexyl]-L-phenylalaninamide] | 45
14 | CC(F)(F)c1cncc([C@H](c2ccc(Cl)cc2)[C@H](N)C(=O)Nc2cccc(F)c2CCC2CNC3CCCS(=O)(=O)N2C3)c1 (stereo partly drawn) [Example 20, (βS)-4-Chloro-β-[5-(1,1-difluoroethyl)pyridin-3-yl]-N-{2-[2-(2,2-dioxido-2-thia-1,7-diazabicyclo[4.3.1]dec-9-yl)ethyl]-3-fluorophenyl}-L-phenylalaninamide] | 11
15 | C[C@@H]1C[C@H]([C@H](c2ccc(Cl)cc2)[C@H](N)C(=O)Nc2cncc(F)c2CC[C@H]2CN[C@@H]3CCCS(=O)(=O)N2C3)C[C@H](C)O1 [Example 31, (2S,3R)-2-Amino-3-(4-chlorophenyl)-3-((2R,4r,6S)-2,6-dimethyltetrahydro-2H-pyran-4-yl)-N-(4-(2-((6R,9S)-2,2-dioxido-2-thia-1,7-diazabicyclo[4.3.1]decan-9-yl)ethyl)-5-fluoropyridin-3-yl)propanamide] | 6.3
16 | COC(=O)N[C@H](C(=O)N[C@H]1CCCC[C@@H]1CC[C@H]1CN[C@@H]2CCCS(=O)(=O)N1C2)[C@@H](c1ccc(Cl)cc1)c1cc(F)cc(F)c1 [Example 100, methyl [(1S,2S)-2-(4-chlorophenyl)-2-(3,5-difluorophenyl)-1-{[(1S,2R)-2-{2-[(6R,9S)-2,2-dioxido-2-thia-1,7-diazabicyclo[4.3.1]dec-9-yl]ethyl}cyclohexyl]carbamoyl}ethyl]carbamate] | 24

Reference: patent US10138255B2, “Piperazine derivatives as HIV protease inhibitors” (Merck Sharp & Dohme Corp., priority 2014, dated 2018)
